Experimental data published in ChEMBL document CHEMBL5131399, “Broadening antifungal spectrum and improving metabolic stablity based on a scaffold strategy: Design, synthesis, and evaluation of novel 4-phenyl-4,5-dihydrooxazole derivatives as potent fungistatic and fungicidal reagents” (Eur J Med Chem, 2022).
pIC50: −log10 of the molar value. Converted amounts (≈) assume the structure as drawn.

What was measured:
Candida albicans [1] = assay: Antibiofilm activity against FLC-resistant Candida albicans CPCC400616 assessed as assessed as inhibition of biofilm formation measured at 6 hrs by XTT reduction assay; format: functional
Candida albicans [2] = assay: Antifungal activity against FLC-resistant Candida albicans 103 assessed as fungal growth inhibition by NCCLS protocol based method; format: functional
Candida albicans [3] = assay: Antifungal activity against FLC-resistant Candida albicans 632 assessed as fungal growth inhibition by NCCLS protocol based method; format: functional
Candida albicans [4] = assay: Antifungal activity against FLC-resistant Candida albicans 311 assessed as fungal growth inhibition by NCCLS protocol based method; format: functional
Candida albicans [5] = assay: Antifungal activity against Candida albicans ATCC SC5314 assessed as fungal growth inhibition by NCCLS protocol based method; format: functional
Cryptococcus neoformans = assay: Antifungal activity against Cryptococcus neoformans CGMCC 2.3161 assessed as fungal growth inhibition by NCCLS protocol based method; format: functional
Candida albicans [6] = assay: Antibiofilm activity against FLC-resistant Candida albicans CPCC400616 assessed as assessed as inhibition of biofilm formation measured at 3 hrs by XTT reduction assay; format: functional
Candida albicans [7] = assay: Antibiofilm activity against FLC-resistant Candida albicans CPCC400616 assessed as assessed as inhibition of biofilm formation measured at 18 hrs by XTT reduction assay; format: functional
Candida albicans [8] = assay: Antifungal activity against Candida albicans CPCC400616 assessed as fungal growth inhibition by NCCLS protocol based method; format: functional
Candida albicans [9] = assay: Antibiofilm activity against FLC-resistant Candida albicans CPCC400616 assessed as assessed as inhibition of biofilm formation measured at 24 hrs by XTT reduction assay; format: functional
Aspergillus fumigatus = assay: Antifungal activity against Aspergillus fumigatus CGMCC3.7795 assessed as fungal growth inhibition by NCCLS protocol based method; format: functional
A549 = assay: Cytotoxicity against human A549 cells assessed as inhibition of cell growth incubated for 4 hrs by MTT assay; format: functional, cell-based; details: A549, 4 h
Candida tropicalis = assay: Antifungal activity against Candida tropicalis CGMCC 2.3739 assessed as fungal growth inhibition by NCCLS protocol based method; format: functional
Pichia kudriavzevii = assay: Antifungal activity against Candida krusei GIM2.1 assessed as fungal growth inhibition by NCCLS protocol based method; format: functional
Candida albicans [10] = assay: Fungicidal activity against Candida albicans CPCC400616 assessed as minimum fungicidal concentration incubated for 48 hrs; format: functional
Candida albicans [11] = assay: Antifungal activity against FLC-resistant Candida albicans 100 assessed as fungal growth inhibition by NCCLS protocol based method; format: functional
Candida albicans [12] = assay: Antifungal activity against FLC-resistant Candida albicans CaR assessed as fungal growth inhibition by NCCLS protocol based method; format: functional
HepG2 = assay: Cytotoxicity against human HepG2 cells assessed as inhibition of cell growth incubated for 4 hrs by MTT assay; format: functional, cell-based; details: HepG2, 4 h
Candida albicans [13] = assay: Antifungal activity against FLC-resistant Candida albicans 901 assessed as fungal growth inhibition by NCCLS protocol based method; format: functional
Candida parapsilosis = assay: Antifungal activity against Candida parapsilosis GIM2.190 assessed as fungal growth inhibition by NCCLS protocol based method; format: functional; details: Lodderomyces parapsilosis
Candida albicans [14] = assay: Antifungal activity against FLC-resistant Candida albicans 904 assessed as fungal growth inhibition by NCCLS protocol based method; format: functional
MCF7 = assay: Cytotoxicity against human MCF7 cells assessed as inhibition of cell growth incubated for 4 hrs by MTT assay; format: functional, cell-based; details: MCF7, 4 h
Candida albicans [15] = assay: Fungicidal activity against Candida albicans CPCC400616 assessed as minimum inhibitory concentration incubated for 48 hrs; format: functional
Candida albicans [16] = assay: […] for fungicidal activity against Candida albicans CPCC400616; format: functional
Nakaseomyces glabratus = assay: Antifungal activity against Candida glabrata clinical isolate assessed as fungal growth inhibition by NCCLS protocol based method; format: functional
[17] = Cytotoxicity against human HEK293T cells assessed as inhibition of cell growth incubated for 4 hrs by MTT assay; format: toxicity, cell-based, HEK-293T
[18] = Stability in human plasma assessed as compound remaining measured at 60 mins by LC/MS-MS analysis; format: ADME, cell-free; details: read-out: Stability
[19] = Stability in human plasma assessed as half life measured at 120 mins by LC/MS-MS analysis; format: ADME, cell-free
[20] = Stability in human plasma assessed as compound remaining measured at 120 mins by LC/MS-MS analysis; format: ADME, cell-free; details: read-out: Stability
[21] = Metabolic stability in human microsomes assessed as intrinsic clearance preincubated for 10 mins followed by NADPH addition and measured after 5 to 60 mins by LC-MS/MS analysis; format: ADME, Microsome; details: time 15-70 min
[22] = Metabolic stability in human liver microsomes assessed as compound remaining preincubated for 10 mins followed by NADPH addition and measured at 60 mins by LC-MS/MS analysis; format: ADME, Microsome; details: time 70 min, read-out: Stability
[23] = Metabolic stability in human liver microsomes assessed as half life preincubated for 10 mins followed by NADPH addition and measured after 5 to 60 mins by LC-MS/MS analysis; format: ADME, Microsome; details: time 15-70 min

Question: Which results are given for `OC(Cn1cncn1)(Cn1cncn1)c1ccc(F)cc1F` [FLUCONAZOLE]?
Answer: MIC50 (Candida albicans [1]): > 64 µg/mL; MIC (Candida albicans [2]): > 64 µg/mL; MIC (Candida albicans [3]): > 64 µg/mL; MIC (Candida albicans [4]): > 64 µg/mL; MIC (Candida albicans [5]): 0.5 µg/mL (≈ 1.63 µM); MIC (Cryptococcus neoformans): 4 µg/mL (≈ 13.1 µM); MIC50 (Candida albicans [6]): 32 µg/mL (≈ 104 µM); MIC50 (Candida albicans [7]): > 64 µg/mL; MIC (Candida albicans [8]): 1 µg/mL (≈ 3.27 µM); MIC50 (Candida albicans [9]): > 64 µg/mL; MIC (Aspergillus fumigatus): > 64 µg/mL; pIC50 (A549): < 4.30; MIC (Candida tropicalis): 0.5 µg/mL (≈ 1.63 µM); MIC (Pichia kudriavzevii): 8 µg/mL (≈ 26.1 µM); MFC (Candida albicans [10]): > 64 µg/mL; MIC (Candida albicans [11]): > 64 µg/mL; MIC (Candida albicans [12]): > 64 µg/mL; pIC50 (HepG2): < 4.30; MIC (Candida albicans [13]): > 64 µg/mL; MIC (Candida parapsilosis): 2 µg/mL (≈ 6.53 µM); MIC (Candida albicans [14]): > 64 µg/mL; pIC50 (MCF7): < 4.30; MIC (Candida albicans [15]): 0.5 µg/mL (≈ 1.63 µM); Ratio (Candida albicans [16]): > 128; MIC (Nakaseomyces glabratus): 4 µg/mL (≈ 13.1 µM); IC50 at 4 h [17]: > 50 µM

Question: Which MIC (Candida albicans [5]) does the source give for `c1ccc(-c2ccc(C3=NC(Cn4ccnc4)(c4ccccc4)CO3)s2)cc1` (stereo not given) here?
Answer: 1 µg/mL (≈ 2.59 µM)

Question: What about the MIC (Cryptococcus neoformans) of the same compound?
Answer: 2 µg/mL (≈ 5.19 µM)

Question: And the MIC (Candida albicans [8])?
Answer: 1 µg/mL (≈ 2.59 µM)

Question: And the MIC (Aspergillus fumigatus)?
Answer: 8 µg/mL (≈ 20.8 µM)

Question: And the remaining at 1 h [18]?
Answer: 93.1%

Question: What about the MIC (Candida tropicalis) of the same compound?
Answer: 4 µg/mL (≈ 10.4 µM)

Question: And the MIC (Pichia kudriavzevii)?
Answer: 16 µg/mL (≈ 41.5 µM)

Question: What about the half-life [19] of the same compound?
Answer: > 288 min

Question: And the remaining at 2 h [20]?
Answer: 89.5%

Question: And the CLint [21]?
Answer: 27.6 µL/min/mg

Question: And the MIC (Candida parapsilosis)?
Answer: 16 µg/mL (≈ 41.5 µM)

Question: What about the MIC (Nakaseomyces glabratus) of the same compound?
Answer: 16 µg/mL (≈ 41.5 µM)

Question: And the remaining at 1 h [22]?
Answer: 41.3%

Question: And the half-life [23]?
Answer: 50.2 min

Question: For `CCC(C)n1ncn(-c2ccc(N3CCN(c4ccc(OCC5COC(Cn6cncn6)(c6ccc(Cl)cc6Cl)O5)cc4)CC3)cc2)c1=O` (stereo not given) [ITRACONAZOLE], which MIC50 (Candida albicans [1]) is on record?
Answer: 32 µg/mL (≈ 45.3 µM)

Question: And the MIC (Candida albicans [5])?
Answer: 0.03 µg/mL (≈ 0.0425 µM)

Question: And the MIC (Cryptococcus neoformans)?
Answer: 0.125 µg/mL (≈ 0.177 µM)

Question: What about the MIC50 (Candida albicans [6]) of the same compound?
Answer: 16 µg/mL (≈ 22.7 µM)

Question: And the MIC50 (Candida albicans [7])?
Answer: > 64 µg/mL

Question: What about the MIC (Candida albicans [8]) of the same compound?
Answer: 0.03 µg/mL (≈ 0.0425 µM)

Question: And the MIC50 (Candida albicans [9])?
Answer: > 64 µg/mL

Question: What about the MIC (Aspergillus fumigatus) of the same compound?
Answer: 0.125 µg/mL (≈ 0.177 µM)

Question: And the pIC50 (A549)?
Answer: < 4.30

Question: And the MIC (Candida tropicalis)?
Answer: 0.03 µg/mL (≈ 0.0425 µM)

Question: And the MIC (Pichia kudriavzevii)?
Answer: 0.125 µg/mL (≈ 0.177 µM)

Question: And the pIC50 (HepG2)?
Answer: < 4.30

Question: And the MIC (Candida parapsilosis)?
Answer: 0.125 µg/mL (≈ 0.177 µM)

Question: What about the pIC50 (MCF7) of the same compound?
Answer: < 4.30

Question: What about the MIC (Nakaseomyces glabratus) of the same compound?
Answer: 0.125 µg/mL (≈ 0.177 µM)

Question: What about the IC50 at 4 h [17] of the same compound?
Answer: > 50 µM

Question: Which MIC50 (Candida albicans [1]) does the source give for `Fc1ccc(C2(Cn3ccnc3)COC(c3ccc(-c4ccccc4)s3)=N2)cc1` (stereo not given) here?
Answer: 2 µg/mL (≈ 4.96 µM)

Question: What about the MIC (Candida albicans [2]) of the same compound?
Answer: 0.25 µg/mL (≈ 0.62 µM)

Question: And the MIC (Candida albicans [3])?
Answer: 1 µg/mL (≈ 2.48 µM)

Question: And the MIC (Candida albicans [4])?
Answer: 1 µg/mL (≈ 2.48 µM)

Question: What about the MIC (Candida albicans [5]) of the same compound?
Answer: 0.06 µg/mL (≈ 0.149 µM)

Question: And the MIC (Cryptococcus neoformans)?
Answer: 0.5 µg/mL (≈ 1.24 µM)

Question: And the MIC50 (Candida albicans [6])?
Answer: 0.25 µg/mL (≈ 0.62 µM)

Question: And the MIC50 (Candida albicans [7])?
Answer: 4 µg/mL (≈ 9.91 µM)

Question: What about the MIC (Candida albicans [8]) of the same compound?
Answer: 0.06 µg/mL (≈ 0.149 µM)

Question: And the MIC50 (Candida albicans [9])?
Answer: 16 µg/mL (≈ 39.7 µM)

Question: What about the MIC (Aspergillus fumigatus) of the same compound?
Answer: 4 µg/mL (≈ 9.91 µM)

Question: What about the pIC50 (A549) of the same compound?
Answer: < 4.30

Question: What about the MIC (Candida tropicalis) of the same compound?
Answer: 0.06 µg/mL (≈ 0.149 µM)

Question: And the MIC (Pichia kudriavzevii)?
Answer: 0.125 µg/mL (≈ 0.31 µM)

Question: And the MFC (Candida albicans [10])?
Answer: 0.5 µg/mL (≈ 1.24 µM)

Question: And the MIC (Candida albicans [11])?
Answer: 0.5 µg/mL (≈ 1.24 µM)

Question: And the MIC (Candida albicans [12])?
Answer: 1 µg/mL (≈ 2.48 µM)

Question: What about the pIC50 (HepG2) of the same compound?
Answer: 4.98

Question: And the MIC (Candida albicans [13])?
Answer: 0.25 µg/mL (≈ 0.62 µM)

Question: What about the MIC (Candida parapsilosis) of the same compound?
Answer: 0.25 µg/mL (≈ 0.62 µM)

Question: What about the MIC (Candida albicans [14]) of the same compound?
Answer: 0.25 µg/mL (≈ 0.62 µM)

Question: And the pIC50 (MCF7)?
Answer: < 4.30

Question: What about the MIC (Candida albicans [15]) of the same compound?
Answer: 0.06 µg/mL (≈ 0.149 µM)

Question: What about the Ratio (Candida albicans [16]) of the same compound?
Answer: 8

Question: What about the MIC (Nakaseomyces glabratus) of the same compound?
Answer: 0.125 µg/mL (≈ 0.31 µM)

Question: And the IC50 at 4 h [17]?
Answer: 14.2 µM

Question: What does the source list for `Cc1ccc(C(=O)C(Cn2ccnc2)NC(=O)c2ccc(-c3ccc(Cl)cc3)s2)cc1` (stereo not given)?
Answer: CLint [21]: 74.6 µL/min/mg; remaining at 1 h [22]: 9.3%; half-life [23]: 18.6 min
